Read-outs that look alike come from different tables or passages of the source.
Legend:
[1] = Rat pharmacokinetics, iv and po dosing, whole blood and plasma; format: in vivo; conditions: for AUC(0-inf) / AUC(0-t) / Cmax / half-life / clearance / Vd / bioavailability / Tmax: mean; for half-life: read-out: half-life (T1/2) (converted); for clearance: read-out: systemic clearance (converted); for Vd: read-out: volume of distribution at the terminal phase; for bioavailability: po 10 mg/kg vs iv 1 mg/kg
Experimental: Rat pharmacokinetic data was obtained for example 2, following iv dosing at 1 mg/kg and po dosing at 10 mg/kg and individual analysis of plasma and whole blood samples at various time points was carried out.

cyclophilin A (Cyp A) = target: T1, cyclophilin A (Cyp A) (Homo sapiens, UniProt P62937); assay: Protease-free PPIase assay, cyclophilin A; format: biochemical
T1 construct: purchased Sigma C3805
T1 sequence (P62937 whole entry): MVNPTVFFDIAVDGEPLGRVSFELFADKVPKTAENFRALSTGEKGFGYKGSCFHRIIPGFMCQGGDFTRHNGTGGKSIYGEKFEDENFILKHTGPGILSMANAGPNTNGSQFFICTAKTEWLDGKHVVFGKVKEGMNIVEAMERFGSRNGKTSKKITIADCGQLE
In short: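 Protease-free cis-trans isomerisation: 2 nM recombinant human cyclophilin A with 60 μM succinimide-peptide substrate in 35 mM HEPES pH 7.8 plus DTT, at 10.0 °C, max 0.5% DMSO. Absorbance at 330 nm was fitted to first-order kinetics, background subtracted, and catalytic rates versus inhibitor concentration gave Ki.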

blood plasma ratio ([1]; intravenous, 1 mg/kg, from volumes of distribution in plasma and whole blood, read-out: difference in blood to plasma ratio): ~3 | systemic clearance relative to hepatic blood flow in rats (3.31 L/hr/kg) ([1]; plasma, iv 1 mg/kg): 1.26 fold | volume of distribution relative to total body water (0.67 L/kg) in rats ([1]; plasma, iv 1 mg/kg): 44.69 fold | AUC(0-inf) ([1]; plasma, iv 1 mg/kg): 0.239 µg·h/mL | AUC(0-t) ([1]; plasma, iv 1 mg/kg): 0.197 µg·h/mL | Cmax ([1]; plasma, iv 1 mg/kg): 0.275 µg/mL | half-life ([1]; plasma, iv 1 mg/kg): 4.96 h | clearance ([1]; plasma, iv 1 mg/kg): 4.18 L/h/kg | Vd ([1]; plasma, iv 1 mg/kg): 29.9 L/kg | bioavailability ([1]; plasma): 95.9% | AUC(0-inf) ([1]; plasma, po 10 mg/kg): 2.29 µg·h/mL | AUC(0-t) ([1]; plasma, po 10 mg/kg): 2.25 µg·h/mL | Tmax ([1]; plasma, po 10 mg/kg): 2 h | Cmax ([1]; plasma, po 10 mg/kg, read-out: Cmax): 0.328 µg/mL | half-life ([1]; plasma, po 10 mg/kg): 4.4 h | systemic clearance as share of hepatic blood flow in rats (3.31 L/hr/kg) ([1]; whole blood, iv 1 mg/kg): 35.0% | volume of distribution relative to total body water (0.67 L/kg) in rats ([1]; whole blood, iv 1 mg/kg): 15.40 fold | AUC(0-inf) ([1]; whole blood, iv 1 mg/kg): 0.859 µg·h/mL | AUC(0-t) ([1]; whole blood, iv 1 mg/kg): 0.827 µg·h/mL | Cmax ([1]; whole blood, iv 1 mg/kg): 0.643 µg/mL | half-life ([1]; whole blood, iv 1 mg/kg): 6.14 h | clearance ([1]; whole blood, iv 1 mg/kg): 1.16 L/h/kg | Vd ([1]; whole blood, iv 1 mg/kg): 10.3 L/kg | bioavailability ([1]; whole blood): 70.1% | AUC(0-inf) ([1]; whole blood, po 10 mg/kg): 6.02 µg·h/mL | AUC(0-t) ([1]; whole blood, po 10 mg/kg): 5.93 µg·h/mL | Tmax ([1]; whole blood, po 10 mg/kg): 2 h | Cmax ([1]; whole blood, po 10 mg/kg, read-out: Cmax): 0.678 µg/mL | half-life ([1]; whole blood, po 10 mg/kg): 4.03 h | Ki (cyclophilin A (Cyp A)): 9.2 nM
SMILES: CC(C)CC1NC(=O)[C@H](CC(C)C)N(C)C(=O)CN(C)C(=O)C([C@@H](C)O)NC(=O)C([C@H](O)[C@H](C)CCN2CCOCC2)N(C)C(=O)C(C(C)C)N(C)C(=O)C(CC(C)C)NC(=O)C(CC(C)C)N(C)C(=O)C(C(C)C)OC(=O)C(C)NC(=O)C(CC(C)C)N(C)C1=O (stereo in doubt) [Example 2, cyclo-[(3R,4R,5S)-4-(hydroxy)-3-methyl-5-(methylamino)-1-N-morpholino-hexanoic acid-Thr-Sar-MeLeu-Leu-MeLeu-Ala-D-Hiv-MeLeu-Leu-MeVal]]

— patent US9382295B2, “Cyclic depsipeptide compounds and their uses” (Cypralis Limited, priority 2012, dated 2016)
